# According to patent publication US4520026A, “Indolizine derivatives and use as cardiovascular agents” (S. A. Labaz N.V., priority 1982, dated 1985):
# Assays:
# [1] = tested on: epinephrine-accelerated heart rate (anti-β effect); assay: Antiadrenergic effect: anti-β effect (reduction of epinephrine-accelerated heart rate); type: in vivo; conditions: dog
# Procedure: (§1) The purpose of this test was to determine the capacity of the compounds under study to reduce epinephrine-increased blood-pressure (anti-α effect) and epinephrine-accelerated heart rate (anti-β effect) in the dog previously anaesthetized with pentobarbital and atropinized.
# (§2) For each dog, the dose of epinephrine was first determined which provoked a reproductible increase by about 100 mm. Hg in the arterial pressure (between 5 and 10 μg/kg). After that, the dose of epinephrine so determined was administered followed by a dose by intravenous route of the compound to be studied. The percentage of reduction of the hypertension provoked by the compound under study in comparison with the hypertension previously obtained (about 100 mm. Hg) was then registered.
# (§3) The percentage of reduction of the epinephrine-induced acceleration of heart-rate produced by the compound under study in comparison with the tachycardia previously measured (about 70 beats) was then registered. In both cases, the results were expressed as follows: […]
# (§4) + for a <50%-reduction of the increase in pressure or cardiac frequency
# (§5) ++ for a ≥50%-reduction of the increase in pressure or cardiac frequency
# (§6) +++ for a subtotal reduction of the increase in pressure or cardiac frequency
# [2] = tested on: epinephrine-increased blood-pressure (anti-α effect); assay: Antiadrenergic effect: anti-α effect (reduction of epinephrine-increased blood-pressure); type: in vivo; conditions: dog
# Procedure: as §1, §2, §3, §4, §5, §6
# [3] = tested on: blood-flow to the myocardium; assay: Effect on blood-flow to the myocardium, anaesthetized dogs, intravenous; type: in vivo, dog
# Procedure: It was undertaken on anaesthetized dogs which received the substance under study by intravenous route. The intensity of the maximum effect on blood-flow to the myocardium was expressed in percentage of the corresponding value before injection. The time required for the maximum effect to decrease by 50% represented the duration of the effect. This time was measured in minutes.
# [4] = Canis lupus familiaris, iv, dose 10 mg/kg i.v.
# [5] = Canis lupus familiaris, iv, dose 10 mg/kg i.v., anaesthetized dog, read-out: Max. increase (blood-flow to the myocardium)
# [6] = dose 10 mg/kg i.v., anaesthetized dog
# [7] = Canis lupus familiaris, iv, dose 5 mg/kg i.v., anaesthetized dog, read-out: Max. increase (blood-flow to the myocardium)
# [8] = dose 5 mg/kg i.v., anaesthetized dog
# [9] = Canis lupus familiaris, iv, dose 8 mg/kg i.v., anaesthetized dog, read-out: Max. increase (blood-flow to the myocardium)
# [10] = dose 8 mg/kg i.v., anaesthetized dog
# [11] = Canis lupus familiaris, iv, dose 8.76 mg/kg i.v.
structure (smiles),measurement,setting,value
"CCCCc1oc2ccccc2c1C(=O)c1cc(I)c(OCCN(CC)CC)c(I)c1 [Amiodarone, reference compound]",inhibition in vivo at 10 mg/kg,[1]; [4],> 50%
same,inhibition in vivo at 10 mg/kg,[2]; [4],> 50%
same,change in vivo at 10 mg/kg,[3]; [5],36%
same,"Coronarodilating effect / blood-flow to the myocardium, in words",[3]; comparative,cannot be regarded as a coronarodilator
same,Time required to decrease to 50% (duration of effect),[3]; [6],7 min
"CCCCN(CCCC)CCCOc1ccc(C(=O)c2c(CC)c(Br)c3ccccn23)cc1Br [Br/Br/H/C2H5/n-C4H9/3, 1-Bromo-2-ethyl-3-[4-(3-di-n-butylaminopropyl)-oxy-3-bromo-benzoyl]-indolizine]",Anti-β effect,[1]; dose 10 mg/kg i.v.,+++
same,Anti-α effect,[2]; dose 10 mg/kg i.v.,+++
same,change in vivo at 10 mg/kg,[3]; [5],60%
same,Time required to decrease to 50% (duration of effect),[3]; [6],90 min
"CCCN(CCC)CCCOc1ccc(C(=O)c2c(-c3ccccc3)c(Br)c3ccccn23)cc1Br [Br/Br/H/drawing 11/n-C3H7/3, 1-Bromo-2-phenyl-3-[4-(3-di-n-propylaminopropyl)-oxy-3-bromo-benzoyl]-indolizine]",change in vivo at 10 mg/kg,[3]; [5],100%
same,Time required to decrease to 50% (duration of effect),[3]; [6],20 min
CCCCN(CCCC)CCCOc1ccc(C(=O)c2c(-c3cccc(Br)c3)c(Br)c3ccccn23)cc1Br [Br/Br/H/drawing 12/n-C4H9/3],change in vivo at 10 mg/kg,[3]; [5],150%
same,Time required to decrease to 50% (duration of effect),[3]; [6],100 min
"CCCc1c(Br)c2ccccn2c1C(=O)c1ccc(OCCCN(CCC)CCC)c(Br)c1 [Br/Br/H/n-C3H7/n-C3H7/3, 1-Bromo-2-n-propyl-3-[4-(3-di-n-propylaminopropyl)-oxy-3-bromo-benzoyl]-indolizine]",change in vivo at 10 mg/kg,[3]; [5],90%
same,Time required to decrease to 50% (duration of effect),[3]; [6],20 min
"CCCCc1c(Br)c2ccccn2c1C(=O)c1ccc(OCCCN(CCC)CCC)c(Br)c1 [Br/Br/H/n-C4H9/n-C3H7/3, 1-Bromo-2-n-butyl-3-[4-(3-di-n-propylaminopropyl)-oxy-3-bromo-benzoyl]-indolizine]",change in vivo at 10 mg/kg,[3]; [5],100%
same,Time required to decrease to 50% (duration of effect),[3]; [6],20 min
CCCCN(CCCC)CCCOc1ccc(C(=O)c2c(-c3ccccc3)c(Br)c3ccccn23)cc1Cl [Br/Cl/H/drawing 17/n-C4H9/3],change in vivo at 10 mg/kg,[3]; [5],90%
same,Time required to decrease to 50% (duration of effect),[3]; [6],90 min
CCCN(CCC)CCCOc1ccc(C(=O)c2c(-c3ccc(Br)cc3)c(Br)c3ccccn23)cc1Cl [Br/Cl/H/drawing 18/n-C3H7/3],change in vivo at 10 mg/kg,[3]; [5],50%
same,Time required to decrease to 50% (duration of effect),[3]; [6],50 min
CCCN(CCC)CCCOc1ccc(C(=O)c2c(-c3ccc(Cl)cc3)c(Br)c3ccccn23)cc1Cl [Br/Cl/H/drawing 19/n-C3H7/3],change in vivo at 10 mg/kg,[3]; [5],63%
same,Time required to decrease to 50% (duration of effect),[3]; [6],45 min
"CCCCN(CCCC)CCCOc1ccc(C(=O)c2c(C(C)C)c(Br)c3ccccn23)cc1Cl [Br/Cl/H/iso-C3H7/n-C4H9/3, 1-Bromo-2-isopropyl-3-[4-(3-di-n-butylaminopropyl)-oxy-3-chloro-benzoyl]-indolizine]",change in vivo at 5 mg/kg,[3]; [7],133%
same,Time required to decrease to 50% (duration of effect),[3]; [8],20 min
"CCCCN(CCCC)CCCOc1ccc(C(=O)c2c(CCC)c(Br)c3ccccn23)cc1Cl [Br/Cl/H/n-C3H7/n-C4H9/3, 1-Bromo-2-n-propyl-3-[4-(3-di-n-butylaminopropyl)-oxy-3-chloro-benzoyl]-indolizine]",Anti-β effect,[1]; dose 10 mg/kg i.v.,+++
same,Anti-α effect,[2]; dose 10 mg/kg i.v.,+++
same,change in vivo at 2.5 mg/kg,"[3]; Canis lupus familiaris, iv, dose 2.5 mg/kg i.v., anaesthetized dog, read-out: Max. increase (blood-flow to the myocardium)",50%
same,Time required to decrease to 50% (duration of effect),"[3]; dose 2.5 mg/kg i.v., anaesthetized dog",60 min
"CCCCc1c(Br)c2ccccn2c1C(=O)c1ccc(OCCCN(CCC)CCC)c(Cl)c1 [Br/Cl/H/n-C4H9/n-C3H7/3, 1-Bromo-2-n-butyl-3-[4-(3-di-n-propylaminopropyl)-oxy-3-chloro-benzoyl]-indolizine]",inhibition in vivo at 10 mg/kg,[1]; [4],< 50%
same,inhibition in vivo at 10 mg/kg,[2]; [4],> 50%
same,change in vivo at 10 mg/kg,[3]; [5],40%
same,Time required to decrease to 50% (duration of effect),[3]; [6],90 min
"CCCN(CCC)CCCOc1ccc(C(=O)c2c(-c3cccc(Br)c3)c(Cl)c3ccccn23)cc1Cl [Cl/Cl/H/drawing 21/n-C3H7/3, 1-Chloro-2-(3-bromo-phenyl)-3-[4-(3-di-n-propylaminopropyl)-oxy-3-chloro-benzoyl]-indolizine]",change in vivo at 8 mg/kg,[3]; [9],70%
same,Time required to decrease to 50% (duration of effect),[3]; [10],90 min
CCCN(CCC)CCCOc1ccc(C(=O)c2c(-c3ccc(Cl)cc3)c(Cl)c3ccccn23)cc1 [Cl/H/H/drawing 22/n-C3H7/3],change in vivo at 5 mg/kg,[3]; [7],50%
same,Time required to decrease to 50% (duration of effect),[3]; [8],40 min
CCCCN(CCCC)CCCOc1ccc(C(=O)c2c(-c3ccc(Br)cc3)cc3ccccn23)cc1Br [H/Br/H/drawing 13/n-C4H9/3],change in vivo at 10 mg/kg,[3]; [5],90%
same,Time required to decrease to 50% (duration of effect),[3]; [6],25 min
"CCCCN(CCCC)CCCOc1ccc(C(=O)c2c(CCC)cc3ccccn23)cc1Br [H/Br/H/n-C3H7/n-C4H9/3, 2-n-Propyl-3-[4-(3-di-n-butylaminopropyl)-oxy-3-bromo-benzoyl]-indolizine]",change in vivo at 2 mg/kg,"[3]; Canis lupus familiaris, iv, dose 2 mg/kg i.v., anaesthetized dog, read-out: Max. increase (blood-flow to the myocardium)",120%
same,Time required to decrease to 50% (duration of effect),"[3]; dose 2 mg/kg i.v., anaesthetized dog",25 min
"CCCCN(CCCC)CCCOc1ccc(C(=O)c2c(C)cc3ccccn23)cc1C [H/CH3/H/CH3/n-C4H9/3, 2-Methyl-3-[4-(3-di-n-butylaminopropyl)-oxy-3-methyl-benzoyl]-indolizine]",inhibition in vivo at 8.76 mg/kg,[1]; [11],> 50%
same,inhibition in vivo at 8.76 mg/kg,[2]; [11],> 50%
"CCCCN(CCCC)CCCOc1ccc(C(=O)c2c(C(C)C)cc3ccccn23)cc1C [H/CH3/H/iso-C3H7/n-C4H9/3, 2-Isopropyl-3-[4-(3-di-n-butylaminopropyl)-oxy-3-methyl-benzoyl]-indolizine]",Anti-β effect,[1]; dose 7.5 mg/kg i.v.,+++
same,Anti-α effect,[2]; dose 7.5 mg/kg i.v.,+++
"CCCCc1cc2ccccn2c1C(=O)c1ccc(OCCCN(CCCC)CCCC)c(C)c1 [H/CH3/H/n-C4H9/n-C4H9/3, 2-n-Butyl-3-[4-(3-di-n-butylaminopropyl)-oxy-3-methyl-benzoyl]-indolizine]",inhibition in vivo at 10 mg/kg,[1]; [4],> 50%
same,inhibition in vivo at 10 mg/kg,[2]; [4],> 50%
CCCCN(CCCC)CCCOc1c(Cl)cc(C(=O)c2c(-c3ccc(Br)cc3)cc3ccccn23)cc1Cl [H/Cl/Cl/drawing 14/n-C4H9/3],change in vivo at 10 mg/kg,[3]; [5],45%
same,Time required to decrease to 50% (duration of effect),[3]; [6],15 min
"CCCN(CCC)CCCOc1ccc(C(=O)c2c(CC)cc3ccccn23)cc1Cl [H/Cl/H/C2H5/n-C3H7/3, 2-Ethyl-3-[4-(3-di-n-propylaminopropyl)-oxy-3-chloro-benzoyl]-indolizine]",inhibition in vivo at 10 mg/kg,[1]; [4],> 50%
same,inhibition in vivo at 10 mg/kg,[2]; [4],> 50%
CCCCN(CCCC)CCCOc1ccc(C(=O)c2c(-c3cccc(Br)c3)cc3ccccn23)cc1Cl [H/Cl/H/drawing 15/n-C4H9/3],change in vivo at 10 mg/kg,[3]; [5],30%
same,Time required to decrease to 50% (duration of effect),[3]; [6],45 min
CCCN(CCC)CCCOc1ccc(C(=O)c2c(-c3cccc(Br)c3)cc3ccccn23)cc1Cl [H/Cl/H/drawing 16/n-C3H7/3],change in vivo at 8 mg/kg,[3]; [9],45%
same,Time required to decrease to 50% (duration of effect),[3]; [10],25 min
CCCCN(CCCC)CCCOc1ccc(C(=O)c2c(-c3ccc(Br)cc3)cc3ccccn23)cc1Cl [H/Cl/H/drawing 20/n-C4H9/3],change in vivo at 10 mg/kg,[3]; [5],60%
same,Time required to decrease to 50% (duration of effect),[3]; [6],25 min
CCCCN(CCCC)CCCOc1ccc(C(=O)c2c(-c3cccc(Br)c3)cc3ccccn23)cc1Cl [H/Cl/H/drawing 25/n-C4H9/3],inhibition in vivo at 10 mg/kg,[1]; [4],> 50%
same,inhibition in vivo at 10 mg/kg,[2]; [4],> 50%
CCCCN(CCCC)CCCOc1ccc(C(=O)c2c(-c3ccc(Br)cc3)cc3ccccn23)cc1Cl [H/Cl/H/drawing 31/n-C4H9/3],inhibition in vivo at 10 mg/kg,[1]; [4],< 50%
same,inhibition in vivo at 10 mg/kg,[2]; [4],> 50%
"CCCCN(CCCC)CCCOc1ccc(C(=O)c2c(CC)cc3ccccn23)cc1OC [H/OCH3/H/C2H5/n-C4H9/3, 2-Ethyl-3-[4-(3-di-n-butylaminopropyl)-oxy-3-methoxy-benzoyl]-indolizine]",inhibition in vivo at 10 mg/kg,[1]; [4],> 50%
same,Anti-α effect,[2]; dose 10 mg/kg i.v.,+++
"CCCN(CCC)CCCOc1ccc(C(=O)c2c(-c3ccccc3)c(OC)c3ccccn23)cc1Cl [OCH3/Cl/H/drawing 43/n-C3H7/3, 1-Methoxy-2-phenyl-3-[4-(3-di-n-propylaminopropyl)-oxy-3-chloro-benzoyl]-indolizine]",Anti-β effect,[1]; dose 10 mg/kg i.v.,+++
same,Anti-α effect,[2]; dose 10 mg/kg i.v.,+++
CCCN(CCC)CCCOc1ccc(C(=O)c2c(-c3ccccc3)c(OC)c3ccccn23)cc1OC [OCH3/OCH3/H/drawing 44/n-C3H7/3],inhibition in vivo at 10 mg/kg,[1]; [4],> 50%
same,inhibition in vivo at 10 mg/kg,[2]; [4],> 50%
